How the values were obtained:
Test in all cases: selective drug sensitivity score (sDSS, relative to normal bone marrow) (sDSS (score)); higher = more potent and effective on the cell line relative to normal bone marrow cells
Conditions in all cases: 72 h
MN-60 = system: MN-60
380 = system: 380
SUP-B15 = system: SUP-B15
PEER = system: PEER
MOLT-4 = system: MOLT-4
COG-LL-319h = system: COG-LL-319h
HPB-ALL = system: HPB-ALL
P12-ICHIKAWA = system: P12-ICHIKAWA
CCRF-HSB2 = system: CCRF-HSB2
COG-LL-402h = system: COG-LL-402h
KASUMI-9 = system: KASUMI-9
697 = system: 697
COG-LL-394h = system: COG-LL-394h
REH = system: REH
NALM-16 = system: NALM-16
COG-LL-332h = system: COG-LL-332h
DND-41 = system: DND-41
MHH-CALL-2 = system: MHH-CALL-2
TMD5 = system: TMD5
KASUMI-10 = system: KASUMI-10
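Also: ALL cell lines in 384-well plates, five doses spanning 10,000-fold, each plate scaled between vehicle and 100 µmol/L benzalkonium chloride controls, sDSS an adapted area-under-curve metric.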

Structure (SMILES)	selective drug sensitivity score (MN-60)	selective drug sensitivity score 380	selective drug sensitivity score (SUP-B15)	selective drug sensitivity score (PEER)	selective drug sensitivity score (MOLT-4)	selective drug sensitivity score (COG-LL-319h)	selective drug sensitivity score (HPB-ALL)	selective drug sensitivity score (P12-ICHIKAWA)	selective drug sensitivity score (CCRF-HSB2)	selective drug sensitivity score (COG-LL-402h)	selective drug sensitivity score (KASUMI-9)	selective drug sensitivity score 697	selective drug sensitivity score (COG-LL-394h)	selective drug sensitivity score (REH)	selective drug sensitivity score (NALM-16)	selective drug sensitivity score (COG-LL-332h)	selective drug sensitivity score (DND-41)	selective drug sensitivity score (MHH-CALL-2)	selective drug sensitivity score (TMD5)	selective drug sensitivity score (KASUMI-10)
Cc1ccc(C(=O)N(CCCN)[C@@H](c2oc3cc(Cl)ccc3c(=O)c2Cc2ccccc2)C(C)C)cc1 (top concentration 100 nM)	-1.84	1.46	4.26	4.96	1.16	13	13.8	1.76	9.56	3.06	4.16	1.36	-2.24	4.26	5.76	6.96	-0.64	9.46	11.9	1.96
C[C@@H](Oc1ccc2[nH]nc(/C=C/c3cnn(CCO)c3)c2c1)c1c(Cl)cncc1Cl (top concentration 1000 nM)	-7.04	-1.34	6.76	5.46	-0.54	4.66	1.46	-2.64	3.86	-2.14	-1.54	1.96	-0.54	-0.64	-1.44	1.96	7.06	-0.74	-0.74	5.46
CCn1c(C(=O)N(C2CC2)C2CC2)cc2c3c(ncn3C)c(Nc3cc(C)n(C)n3)nc21 (top concentration 10000 nM)	-4.36	-4.36	-4.36	-4.36	-3.36	-4.36	-3.16	-4.36	5.14	-4.36	0.04	-3.76	-4.36	-4.36	-4.36	-4.36	-3.86	3.44	-4.36	-0.66
CNc1nc(-c2ccc3c(N)n[nH]c3c2)cc(N2C[C@@H](C(=O)NC3CCCCC3)CC[C@H]2C)n1 (top concentration 10000 nM)	2.96	-0.14	9.96	-0.14	-0.14	2.96	1.86	-0.14	-0.14	6.36	6.36	9.06	-0.14	3.86	3.86	-0.14	1.96	6.16	2.16	0.46
COc1ccc(Cn2ccc3ccc(C(=O)NO)cc32)cc1 (top concentration 10000 nM)	3.44	10.2	3.64	2.24	1.44	8.04	0.84	2.34	6.64	5.44	2.24	4.34	0.94	2.54	2.44	8.14	2.94	6.24	-0.96	3.14
N#Cc1ccc(COC[C@H]2O[C@@H](n3c(NCc4ccc(Cl)c(Cl)c4)nc4c(N)ncnc43)[C@H](O)[C@@H]2O)cc1 (top concentration 10000 nM)	2.12	-0.98	5.72	10.7	5.32	7.52	4.32	7.22	9.92	2.02	-0.58	4.72	-0.08	9.12	-0.88	10.4	8.82	0.52	-1.38	-0.68
NC[C@@](O)(c1ccc(Cl)cc1)c1ccc(-c2cn[nH]c2)cc1 (top concentration 10000 nM)	0.58	13.9	6.78	3.08	-0.42	1.48	-0.72	3.58	5.28	5.78	3.78	9.78	-1.22	2.88	-1.22	2.68	-1.22	2.58	4.98	-1.22
O=c1[nH]c(C2CCCN2)nc2c1oc1ccc(Cl)cc12 (stereo not given) (top concentration 10000 nM)	-2.7	13.1	1.8	0.3	-2.8	2	-2.4	0.1	3.7	-1.5	-1	6.2	0.5	0.3	-1.9	6.7	-1.1	1	-2.8	-2.7
NCC(=O)Nc1ccc(-n2nc(C(F)(F)F)cc2-c2ccc3c(ccc4ccccc43)c2)cc1 (top concentration 25000 nM)	18.9	9.6	7.5	9.9	14.7	8	7.6	16.7	16.4	-0.2	8.1	10.8	-0.2	12.5	5.4	14.3	7.5	7.1	-0.2	0

Source: the supplement of paper PMC8967900
